These results are taken from patent US11446276B2, “Extreme low dose THC as a therapeutic and prophylactic agent for Alzheimer's disease” (University of South Florida, priority 2015, dated 2022).

Each structure is given as a SMILES string. “Also recorded” adds a separate entry of the source. Some results are limits rather than exact numbers.

One data set deals with GSK-3β. The experiment in a line: Western blot of GSK-3β in N2a/AβPPswe cells. The data set is classed as cell-based. Here is the method:
Next, the effects of THC on amyloid protein processing were analyzed by testing total GSK-30 and phosphorylated GSK-3β (pGSK-3β) levels. β-actin, a housekeeping gene, was used as a control to indicate that GSK-3β was expressed at a constant rate and that the changes in intensity were not related to the change in expression amount.
The cellular effects of THC were next analyzed. As Aβ processing is mediated by GSK-3β, protein levels were tested. N2a/AβPPswe cells were treated with 2.5 nM or 0.25 nM of THC, as provided in Example 1, and N2a/AβPPswe cell lysate were collected, quantified, and aliquoted.
N2a/AβPPswe cells were cultured as provided above and Δ9-THC added at 0.25 nM and 2.5 nM, as provided in Example 1. After THC treatment for 48 hours, N2a/AβPPswe cell lysate were collected, quantified, and aliquoted. Using 12% Tris-Glycine gel system (Bio-Rad Laboratories, Inc., Hercules, Calif.), protein were separated by electrophoresis and semi-dry transferred to a polyvinylidene difluoride (PVDF) membrane. GSK-3β (Cat #9315, Cell Signaling Technology, Inc. Danvers, Mass.) and β-actin (Cat #A54441, Sigma Aldrich, Merck KGaA; Darmstadt, Germany) antibodies were used as primary antibody. After adding secondary antibody (Goat-anti-Rabbit-HRP Cat #4050-05, Southern Biotech, part of Thermo Fisher Scientific, Waltham, Mass.; Anti-mouse IgG-HRP Cat #A9044, Sigma Aldrich, Merck KGaA; Darmstadt, Germany), the membranes were exposed using ECL substrate (Pierce). After membrane was developed, film with bands were scanned, followed by analysis of gel-quantification software (QuantityOne, from Bio-rad).
The effects of combining THC with other compounds was analyzed using a combination of THC and melatonin. Cells were treated with 2.5 nM of THC and 10 μM or 1 μM melatonin, using the methods discussed above, and N2a/AβPPswe cell lysate collected, quantified, and aliquoted. […] After membrane was developed, film with bands were scanned, followed by analysis of gel-quantification software (QuantityOne, from Biorad).
On the technique in general: Immunoblotting shows a protein as a band on a membrane.

Data set [1] deals with isolated mitochondria from N2a/AβPPswe cells. The experiment in a line: Respiratory function of isolated mitochondria (Clark type oxygen electrode). The data set is classed as cell-based. On the procedure:
FIG. 14A is a graph showing basal mitochondrial function after treatment with THC and a combination of THC and melatonin. N2a/AβPPswe cells were cultured in 10 cm tissue culture plate and then treated with drugs for 36 hours and mitochondria were harvested and tested for their ability of using oxygen utilization. Samples were loaded as follows; Ctrl, Control, or 10^−5 M Melatonin with 2.5 nM THC, 10^−6 M Melatonin with 2.5 nM THC, 2.5 nM THC, 10^−5 M Melatonin, or 10^−6 M Melatonin+2.5 nM THC.
FIG. 14B is a graph showing mitochondrial function in the presence of FCCP after treatment with THC alone as well as with a combination of THC and melatonin. N2a/AβPPswe cells were cultured in 10 cm tissue culture plate and then treated with drugs for 36 hours and mitochondria were harvested and tested for their ability of using oxygen utilization. Samples were loaded as follows; Ctrl, Control, or 10^−5 M Melatonin with 2.5 nM THC, 10^−6 M Melatonin with 2.5 nM THC, 2.5 nM THC, 10^−5 M Melatonin, or 10^−6 M Melatonin+2.5 nM THC.

The next data set deals with Aβ peptide (Homo sapiens, UniProt P05067). In words: Western blot of aggregated Aβ peptide / Aβ monomer. The data set is classed as biochemical. To be noted: 100 nM, 10 nM, 1 nM THC; FIGS. 4A, 4B. On the procedure:
FIG. 4A is a western blot showing aggregated Aβ peptide with and without THC treatment.
FIG. 4B is a graph showing the relative quantity of Aβ monomer in the anti-aggregation study described in FIG. 4A. Cells were untreated for the aggregation control or treated with and 100 nM THC, 10 nM THC, and 1 nM THC.
(§1) In untreated samples, Aβ peptide increased in intensity for the first 20 minutes, followed by a plateauing of fluorescence at around 30 minutes, at which time the intensity remained constant for the duration of the study. […] Therefore, THC's direct interaction with the Aβ peptide will not dampen an immune response to clear the Aβ peptide. Further analysis with western blot was performed measuring the anti-aggregation properties of THC with Aβ peptide.

The subject of the next data set is mitochondrial function. To be noted: THC 10 to 50 micromolar; cited from earlier work.
Data set [2] addresses Aβ peptide amino acids 1-10, the major B-cell epitope (Homo sapiens, UniProt P05067). The experiment in a line: ELISA for THC interference with the major B cell epitope of Aβ. The data set is classed as binding. To be noted: each increasing concentration of THC; FIG. 3B. Here is the method:
as §1

Another data set deals with phosphorylated GSK-3β. In words: Western blot of phosphorylated GSK-3β in N2a/AβPPswe cells. The data set is classed as cell-based. To be noted: 25 nM, 2.5 nM, 0.25 nM THC; 36 hours; FIGS. 5D, 10B.
The conditions of data set [3]: in vivo; cited from earlier work.
The subject of the next data set is brain energy metabolism. To be noted: repeated high doses of THC (10 mg/kg body weight); rat brains; cited from earlier work.
Data set [4] concerns Aβ40 in N2a/AβPPswe cells. In words: Aβ40 ELISA of N2a/AβPPswe cells treated with THC or caffeine. As to conditions: for Aβ40 levels versus control: THC 0.25-2500 nM or caffeine 0.625-10 μM; for Percentage of decreased Aβ40: THC 2.5 μg/mL compared with the control; for Aβ40 (pg/mL) in THC-treated cells: THC 2.5 μg/mL, N2a/AβPPswe cells. The data set is classed as cell-based, human.

Data set [5] deals with AChE induced Aβ aggregation (Homo sapiens, UniProt P22303). To be noted: THC 50 μM; cited from earlier work.
AChE induced Aβ aggregation, sequence (P22303 32-614): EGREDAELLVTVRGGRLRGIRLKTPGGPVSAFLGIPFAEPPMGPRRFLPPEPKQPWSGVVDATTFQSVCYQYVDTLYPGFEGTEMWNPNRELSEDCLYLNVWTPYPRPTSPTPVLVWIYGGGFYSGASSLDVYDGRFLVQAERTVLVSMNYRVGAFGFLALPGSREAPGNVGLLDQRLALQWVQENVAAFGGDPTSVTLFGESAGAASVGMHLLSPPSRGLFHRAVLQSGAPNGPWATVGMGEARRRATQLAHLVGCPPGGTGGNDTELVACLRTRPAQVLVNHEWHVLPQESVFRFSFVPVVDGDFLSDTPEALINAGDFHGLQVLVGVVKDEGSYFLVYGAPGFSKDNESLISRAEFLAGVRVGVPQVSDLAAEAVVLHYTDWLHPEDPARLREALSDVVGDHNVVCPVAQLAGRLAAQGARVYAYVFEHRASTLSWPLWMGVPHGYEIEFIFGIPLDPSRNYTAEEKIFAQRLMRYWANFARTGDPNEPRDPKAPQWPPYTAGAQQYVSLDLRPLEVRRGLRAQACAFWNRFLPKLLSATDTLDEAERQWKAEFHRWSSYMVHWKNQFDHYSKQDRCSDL

Aβ peptide, sequence (P05067 672-711 limits assumed): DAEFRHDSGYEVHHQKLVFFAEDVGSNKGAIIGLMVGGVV
Aβ peptide amino acids 1-10, the major B-cell epitope, sequence (P05067 672-711 limits assumed): as above
Procedure for phosphorylated GSK-3β: Cells were plated in 6 well plate overnight with 25 nM THC, 2.5 nM THC, or 0.25 nM THC added into each designated wells in duplicate. Cells were lysed after 36 hours incubation. Proteins were loaded onto SDS-page gel and then blotted with each antibody after transfer onto PVDF membrane.
Using 12% Tris-Glycine gel system (Bio-rad), proteins were separated by electrophoresis and semi-dry transferred to a PVDF membrane. GSK-3β and β-actin antibodies were used as primary antibody. After adding secondary antibody, the membranes were exposed using ECL substrate (Pierce). After membrane was developed, film with bands were scanned, followed by analysis of gel-quantification software (QuantityOne, from Biorad).

On to `CCCCCc1cc(O)c2c(c1)OC(C)(C)[C@@H]1CCC(C)=C[C@@H]21` [THC, Δ9-tetrahydrocannabinol], for which, in the data set with GSK-3β (THC 0.25 nM and 2.5 nM, 48 hours, FIGS. 5A, 5B), the “GSK-3β protein levels (ratio to β-actin)” value is “dose-dependent decrease; also recorded: decreases the GSK-3β protein levels”. Besides, the “GSK-3 levels relative to the control” value with GSK-3β (lowest level of THC from the tests) was “about half”. Besides, the “Decrease of GSK-3β protein levels over the untreated control” value in the data set with GSK-3β (ultra-low doses of THC, FIGS. 5A, 5B) was no more than 50%. Besides, in data set [1] (2.5 nM THC alone or with 10 μM or 1 μM melatonin, early and late stages of respiration), the “Respiration / oxygen utilization of isolated mitochondria” value is given as “higher oxygen utilization”. In addition, the “Basal mitochondrial function (oxygen utilization)” value in [1] (36 hours treatment, FIG. 14A) is “enhance mitochondrial function”. Besides, the “Mitochondrial function in the presence of FCCP” value in data set [1] (36 hours treatment, FIG. 14B) is given as “enhance mitochondrial function”. Besides, the “Relative quantity of Aβ monomer” value at Aβ peptide is “increases monomeric Aβ; also recorded: higher relative % of Aβ monomer”. In the data set with mitochondrial function, the Cell death entry was “induces cell death”. In addition, in the data set on mitochondrial function, the Mitochondrial function entry is on record as “inhibitor of mitochondrial function”. In data set [2], the “Interference with the major B cell epitope of Aβ (ELISA absorbance)” value is listed as “No identified interference; also recorded: no significant difference in absorbance”. Besides, the “Phosphorylated GSK-3β, THC alone” value in the data set on phosphorylated GSK-3β is “decreases the phosphorylation of GSK-3β; also recorded: decrease of phosphorylated GSK-3β; also recorded: decreases phosphorylated GSK-3β”. The Bioavailability in [3] was 30%. Moreover, the Brain energy metabolism entry in the data set with brain energy metabolism is listed as “dampen the brain energy metabolism”. In addition, in data set [4] (6 hours, THC 0.25 nM), the “Aβ levels at the lowest dose” value is reported as “minor increase”. Moreover, the “Aβ40 levels versus control” value in data set [4] (6 hours, FIG. 1A) was “dose-dependent decrease; also recorded: significant reduction”; in data set [4] (24 hours, FIG. 1B), “dose-dependent decrease; also recorded: exponential drop”; in data set [4] (48 hours, FIG. 1C), “dose-dependent decrease; also recorded: significantly differed more”. Also, the “Percentage of decreased Aβ40” value in data set [4] (6 hr) stood at 9.23%; in data set [4] (24 hr), 31.19%; in [4] (48 hr), 51.24%. The “Aβ40 (pg/mL) in THC-treated cells” value in data set [4] (6 hr) is reported as 965.827 pg/mL; in data set [4] (24 hr) it was 3648.975 pg/mL; in data set [4] (48 hr) it was 2894.175 pg/mL. Also, the “AChE induced Aβ aggregation” value in data set [5] was “prevents AChE induced Aβ aggregation”.
